This note sets out measurements from patent US7001770B1, “Calpain inhibitors and their applications” (priority 1998, dated 2006).

The subject of assay [1] is HLF cells. Nature of the assay: Apoptosis by annexin V-FITC staining, flow cytometry. Conditions: calpain inhibitor 2 at 10 μM. Type of assay: cell-based. As for the experimental part: (§1) P53 was administered to the cells by the use of the replication defective adenoviral vector ACN53 described in Wills, et al., supra. The effect of varying concentrations of rAd-p53 (from […] to 2×10^9 rAd-p53 particles/ml of solution) was investigated in combination with CI-1 in a range of 5–20 μm. The effects of individual and combination treatment was determined in the in DLD1, RKO, HLF and SK-Hep1 cells was investigated in substantial accordance with the teaching of Examples 2 and 3 herein. The percentage of apoptotic cells was determined at 17 hours post treatment (with the exception of U87 cells (24 hours) and HeLa cells (68 hours)) with annexin V positive staining. The results are presented in graphical format in FIG. 3 of the attached drawings. In brief, the results were as follows:
To quantitate the increased efficacy of rAd-p53 induced cell killing in tumor cell lines in response to CI-1 treatment, HLF cells were infected with increasing concentrations of rAd-p53 with or without 10 μM CI-1, and assayed for percentage apoptotic cells by annexin V-FITC staining 42 hours post-treatment in substantial accordance with the teaching of Example 3 herein. […] No increase in annexin V-FITC positive cells was detected at 1×10^5 particles/ml rAd-p53 with or without 10 μM CI-1. At 1×10^6 particles/ml rAd-p53, the percentage apoptotic cells without CI-1 was 14%, while 40% of annexin V positive cells was detected when cell were treated with 10 μM CI-1. At a concentration of 1×10^7 ACN53 particles/ml, 17% annexin V positive without and 63% with 10 μM CI-1 was detected. At 1×10^8 particles/ml, 52% were annexin V positive without and 70% positive with inhibitor treatment. At a dose of 1×10^9 particles of rAd-p53, however, the percentage annexin V positive was about the same for both 77% without and 74% with 10 μM CI-1. […] concentration of rAd-p53 was sufficient to induce approximately 50% cell death, while only a 1×10^7 particle/ml concentration rAd-p53 was needed to induce approximately the same percentage of cell death when 10 μM CI-1 as added.
(§2) The effect of an inhibitor of μ-calpains, CI-1 (N-acetyl-leu-leu-norleucinal), was investigated for its ability to enhance p53 mediated apoptosis in tumor cell lines having p53+ and p53− status listed in Table1. Each cell line was treated with 5–50 μM CI-1 for 17–26 hours. To detect a G0/G1 block, bromodeoxyuridine (BrdU) incorporation followed by flow cytometric analysis was done 17 hours post-treatment as described in Example 4 herein. […] The results of these experiments are presented in FIGS. 1 and 2 of the attached drawings. In FIG. 1, each point on the graph represents percentage annexin V positive after background percentage (DMF alone) was subtracted.
(§3) An aliquot containing approximately 1×10^6 cells of each type was placed in a T-225 flask. The effect of varying concentrations of rAd-p53 (from 1×10^7 to 2×10^9ACN53 particles/ml of solution) was investigated in combination with CI-1 in a range of 5–20 μM. In each instance, the cell line was infected with 1×10^7–1×10^9 particles/ml of cell culture with the ACN53 using the empty cassette virus (ZZCB) as a control. In each instance, the cells were exposed to the virus for a period of one hour. At the end of this time, the virus was washed off the from the cells and fresh media containing an appropriate concentration of CI-1 was added.
HLF cells were infected at increasing log concentrations of rAd-p53 ranging from 1×10^5 to 1×10^9 for one hour at which time virus was washed off and replaced with fresh media (viral infection with no treatment) or with 10 μM calpain inhibitor 1. Cells were assayed for apoptosis by annexin V-FITC staining at 24 and 42 hours post-infection.
CI-1 was obtained from Boehringer-Mannheim Biochemicals (Indianapolis, Ind.). The CI-1 containing media was prepared as follows. CI-1 was diluted in dimethylformamide (DMF) to a concentration of 33.3 μM/μl. […]
(In flow cytometry, cells or beads pass a laser one at a time.)

Assay [2] relates to SK-Hep1 cells. The assay is described as above. Type of assay: cell-based. As to conditions: calpain inhibitor 2 at 20 μM; endogenous wildtype p53. As to the method:
as §1, §2, §3
CI-1 was obtained from Boehringer-Mannheim Biochemicals (Indianapolis, Ind.). The CI-1 containing media was prepared as follows. CI-1 was diluted in dimethylformamide (DMF) to a concentration of 33.3 μM/μl. The CI-1 solution in DMF was added to achieve a final concentration in the media of 5 or 10 μM final concentration of CI-1. An equivalent volume of DMF alone was added to the control cells. Calpain inhibitor 2, N-acetyl-leu—leu-methioninal (Boehringer Mannheim) was added to cell lines at 5–50 μM final concentration with or without rAd-p53 for 26 hours.
At a time of 17 (or 26 hours) post infection, the percentage of cells undergoing apoptosis was determined by convential apoptotic markers. Apoptosis was monitored visually by observing blebbed nuclei characteristic of apoptosis, by propidium iodide staining (using propidium iodide commercially available from Molecular Probes, Inc.) followed by flow cytometric analysis to look for subgenomic populations of cells, and by labeling cells with annexin V-FITC (commercially available from Boehringer Mannheim) in substantial accordance with the instructions provided by the manufacturer, followed by flow cytometric analysis on a FACScan Flow Cytometer (commercially available from Becton Dickinson).

Peptide text beside a SMILES is read from it.

In the case of `CSCC[C@@H](C=O)NC(=O)[C@H](CC(C)C)NC(=O)[C@H](CC(C)C)NC(C)=O` [CI-2, N-acetyl-leu—leu-methioninal] (Ac-Leu-Leu-Met-aldehyde), the “effect on the induction of apoptosis in combination with rAd-p53” value in assay [1] is listed as “no significant effect”. Also, the “increase in annexin V-FITC positive cells” value in assay [2] was “no significant increase”.
